Measurements as given in patent publication US9822130B2, “Triazolo-pyrazinyl derivatives useful as soluble guanylate cyclase activators” (Merck Sharp & Dohme Corp., priority 2014, dated 2017).

Target: T1, sGC α1/β1 heterodimer stably expressed in CHO-K1 cell line (CHO-K1/sGC) (Homo sapiens, UniProt Q02108+Q02153)
T1 construct: expressed in transfected cells
T1 sequence (Q02108 1-690): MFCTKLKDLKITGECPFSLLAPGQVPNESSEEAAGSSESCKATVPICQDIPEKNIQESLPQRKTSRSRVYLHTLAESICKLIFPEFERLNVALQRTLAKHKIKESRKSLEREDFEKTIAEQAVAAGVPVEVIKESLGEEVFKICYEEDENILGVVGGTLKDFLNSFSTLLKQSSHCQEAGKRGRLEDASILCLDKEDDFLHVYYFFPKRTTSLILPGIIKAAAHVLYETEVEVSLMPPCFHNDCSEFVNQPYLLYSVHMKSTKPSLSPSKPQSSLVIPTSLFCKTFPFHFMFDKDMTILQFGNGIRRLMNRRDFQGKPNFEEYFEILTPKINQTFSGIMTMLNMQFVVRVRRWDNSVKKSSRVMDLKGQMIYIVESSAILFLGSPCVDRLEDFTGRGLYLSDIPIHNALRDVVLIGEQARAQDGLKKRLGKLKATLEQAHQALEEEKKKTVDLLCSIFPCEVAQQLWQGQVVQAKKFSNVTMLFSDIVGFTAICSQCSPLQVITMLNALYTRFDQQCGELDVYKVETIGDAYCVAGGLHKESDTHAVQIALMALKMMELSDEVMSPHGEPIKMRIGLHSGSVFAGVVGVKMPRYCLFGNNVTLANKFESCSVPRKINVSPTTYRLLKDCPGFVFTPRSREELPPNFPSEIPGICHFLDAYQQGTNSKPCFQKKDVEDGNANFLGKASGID
T1 sequence (Q02153 1-619): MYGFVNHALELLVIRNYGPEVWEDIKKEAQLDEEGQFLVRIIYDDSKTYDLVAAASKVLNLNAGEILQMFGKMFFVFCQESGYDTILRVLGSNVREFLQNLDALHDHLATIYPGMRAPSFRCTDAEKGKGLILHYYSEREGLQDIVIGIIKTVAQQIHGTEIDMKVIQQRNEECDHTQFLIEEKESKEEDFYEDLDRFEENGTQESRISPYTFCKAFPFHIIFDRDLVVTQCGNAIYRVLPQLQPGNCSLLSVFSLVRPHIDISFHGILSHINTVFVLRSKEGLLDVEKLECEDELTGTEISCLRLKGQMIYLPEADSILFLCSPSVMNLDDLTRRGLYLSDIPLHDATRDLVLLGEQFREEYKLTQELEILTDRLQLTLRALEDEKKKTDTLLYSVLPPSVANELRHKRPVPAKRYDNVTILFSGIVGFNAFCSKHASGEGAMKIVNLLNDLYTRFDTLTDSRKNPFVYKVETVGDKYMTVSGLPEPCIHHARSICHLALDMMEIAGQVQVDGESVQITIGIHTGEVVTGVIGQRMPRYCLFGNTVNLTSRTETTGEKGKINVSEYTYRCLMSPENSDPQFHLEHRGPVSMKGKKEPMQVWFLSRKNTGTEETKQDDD
Assay: Cell-based sGC Functional Assay (CASA Assay), cGMP generation
Conditions: CHO-K1/sGC cells, 1 hr at 37° C., cGMP by HTRF, presence or absence of 1 μM DETA-NO not given; for EC50: 4P fit, read-out: IP (nM) (inflection point)
Outline: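 CHO-K1 cells stably expressing human sGC α1/β1 (4×10^5/mL, 0.5 mM IBMX) were treated with compounds (2.5% DMSO final) ± 1 μM DETA-NO for 1 hr at 37° C. Intracellular cGMP measured by HTRF. Activity expressed as % of Compound A maximal cGMP; IP and maximum fold induction from 4P fit.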

| SMILES | EC50 | Emax (read-out: % Act. (percent activation relative to maximum cGMP production of Compound A = 100%)) |
| --- | --- | --- |
| C[C@@]1(c2ccc(F)cc2)C(=O)Nc2nc(-c3cn4ncnc4c(Cc4cccc(O)c4)n3)nc(N)c21 [Example 113B, (S)-4-amino-5-(4-fluorophenyl)-2-(8-(3-hydroxybenzyl)-[1,2,4]triazolo[1,5-a]pyrazin-6-yl)-5-methyl-5H-pyrrolo[2,3-d]pyrimidin-6(7H)-one] | 763 nM | – |
| Nc1nc(-c2cn3ncnc3c(CCC(F)(F)C(F)(F)F)n2)nc2c1C(c1ccccn1)(C1CC1)C(=O)N2 (stereo not drawn) [Example 114A, 4-amino-5-cyclopropyl-2-(8-(3,3,4,4,4-pentafluorobutyl)-[1,2,4]triazolo[1,5-a]pyrazin-6-yl)-5-(pyridin-2-yl)-5,7-dihydro-6H-pyrrolo[2,3-d]pyrimidin-6-one] | 144 nM | – |
| Nc1nc(-c2cn3ncnc3c(CCCC(F)(F)F)n2)nc2c1C(c1ccccn1)(C1CC1)C(=O)N2 (stereo not drawn) [Example 115A, 4-amino-5-cyclopropyl-5-(pyridin-2-yl)-2-(8-(4,4,4-trifluorobutyl)-[1,2,4]triazolo[1,5-a]pyrazin-6-yl)-5H-pyrrolo[2,3-d]pyrimidin-6(7H)-one] | 233 nM | – |
| CCCCc1nc(-c2nc(N)c3c(n2)NC(=O)C3(c2ccccn2)C2CC2)cn2ncnc12 (stereo not drawn) [Example 116A, 4-amino-2-(8-butyl-[1,2,4]triazolo[1,5-a]pyrazin-6-yl)-5-cyclopropyl-5-(pyridin-2-yl)-5H-pyrrolo[2,3-d]pyrimidin-6(7H)-one] | 19.7 nM | – |
| N#Cc1ccc(C2(C3CC3)C(=O)Nc3nc(-c4cn5ncnc5c(CCCC(F)(F)F)n4)nc(N)c32)nc1 (stereo not drawn) [Example 117A, 6-(4-Amino-5-cyclopropyl-6-oxo-2-(8-(4,4,4-trifluorobutyl)-[1,2,4]triazolo[1,5-a]pyrazin-6-yl)-6,7-dihydro-5H-pyrrolo[2,3-d]pyrimidin-5-yl)nicotinonitrile] | 49.2 nM | – |
| N#Cc1ccc(C2(C3CC3)C(=O)Nc3nc(-c4cn5ncnc5c(CCC(F)(F)C(F)(F)F)n4)nc(N)c32)nc1 (stereo not drawn) [Example 118A, 6-(4-Amino-5-cyclopropyl-6-oxo-2-(8-(3,3,4,4,4-pentafluorobutyl)-[1,2,4]triazolo[1,5-a]pyrazin-6-yl)-6,7-dihydro-5H-pyrrolo[2,3-d]pyrimidin-5-yl)nicotinonitrile] | 84.1 nM | – |
| C[C@@]1(c2ccc(F)cc2)C(=O)Nc2nc(-c3cn4ncnc4c(CCC(F)(F)C(F)(F)F)n3)nc(O)c21 [Example 119A, (S)-5-(4-fluorophenyl)-4-hydroxy-5-methyl-2-(8-(3,3,4,4,4-pentafluorobutyl)-[1,2,4]triazolo[1,5-a]pyrazin-6-yl)-5,7-dihydro-6H-pyrrolo[2,3-d]pyrimidin-6-one] | 134 nM | – |
| CC1(c2ccc(Cl)cn2)C(=O)Nc2nc(-c3cn4ncnc4c(CCC(F)(F)C(F)(F)F)n3)nc(O)c21 (stereo not drawn) [Example 120A, 5-(5-chloropyridin-2-yl)-4-hydroxy-5-methyl-2-(8-(3,3,4,4,4-pentafluorobutyl)-[1,2,4]triazolo[1,5-a]pyrazin-6-yl)-5H-pyrrolo[2,3-d]pyrimidin-6(7H)-one] | 155 nM | – |
| CC1(c2ccc(Cl)c(F)c2)C(=O)Nc2nc(-c3cn4ncnc4c(CCC(F)(F)C(F)(F)F)n3)nc(O)c21 (stereo not drawn) [Example 121B, 5-(4-chloro-3-fluorophenyl)-4-hydroxy-5-methyl-2-(8-(3,3,4,4,4-pentafluorobutyl)-[1,2,4]triazolo[1,5-a]pyrazin-6-yl)-5H-pyrrolo[2,3-d]pyrimidin-6(7H)-one] | 130 nM | – |
| CC1(c2ccc(F)cn2)C(=O)Nc2nc(-c3cn4ncnc4c(CCC(F)(F)C(F)(F)F)n3)nc(O)c21 (stereo not drawn) [Example 122B, 5-(5-fluoropyridin-2-yl)-4-hydroxy-5-methyl-2-(8-(3,3,4,4,4-pentafluorobutyl)-[1,2,4]triazolo[1,5-a]pyrazin-6-yl)-5H-pyrrolo[2,3-d]pyrimidin-6(7H)-one] | 141 nM | 100% |
| O=C1Nc2nc(-c3cn4ncnc4c(CCC(F)(F)C(F)(F)F)n3)nc(O)c2C1(c1ccc(F)c(F)c1)C1CC1 (stereo not drawn) [Example 123A, 5-cyclopropyl-5-(3,4-difluorophenyl)-4-hydroxy-2-(8-(3,3,4,4,4-pentafluorobutyl)-[1,2,4]triazolo[1,5-a]pyrazin-6-yl)-5H-pyrrolo[2,3-d]pyrimidin-6(7H)-one] | 204 nM | – |
| O=C1Nc2nc(-c3cn4ncnc4c(CCC(F)(F)C(F)(F)F)n3)nc(O)c2C1(c1cncc(F)c1)C1CC1 (stereo not drawn) [Example 124B, 5-cyclopropyl-5-(5-fluoropyridin-3-yl)-4-hydroxy-2-(8-(3,3,4,4,4-pentafluorobutyl)-[1,2,4]triazolo[1,5-a]pyrazin-6-yl)-5H-pyrrolo[2,3-d]pyrimidin-6(7H)-one] | 1050 nM | – |
| CC1(c2cncc(F)c2)C(=O)Nc2nc(-c3cn4ncnc4c(CCC(F)(F)C(F)(F)F)n3)nc(O)c21 (stereo not drawn) [Example 125A, 5-(5-fluoropyridin-3-yl)-4-hydroxy-5-methyl-2-(8-(3,3,4,4,4-pentafluorobutyl)-[1,2,4]triazolo[1,5-a]pyrazin-6-yl)-5H-pyrrolo[2,3-d]pyrimidin-6(7H)-one] | 575 nM | – |
| CC1(c2ccc(Cl)cc2)C(=O)Nc2nc(-c3cn4ncnc4c(CCC(F)(F)C(F)(F)F)n3)nc(O)c21 (stereo not drawn) [Example 126A, 5-(4-chlorophenyl)-4-hydroxy-5-methyl-2-(8-(3,3,4,4,4-pentafluorobutyl)-[1,2,4]triazolo[1,5-a]pyrazin-6-yl)-5H-pyrrolo[2,3-d]pyrimidin-6(7H)-one] | 132 nM | – |
| CC1(c2ccccn2)C(=O)Nc2nc(-c3cn4ncnc4c(CCC(F)(F)C(F)(F)F)n3)nc(O)c21 (stereo not drawn) [Example 127B, 4-hydroxy-5-methyl-2-(8-(3,3,4,4,4-pentafluorobutyl)-[1,2,4]triazolo[1,5-a]pyrazin-6-yl)-5-(pyridin-2-yl)-5H-pyrrolo[2,3-d]pyrimidin-6(7H)-one] | 1260 nM | – |
| CC1(c2ccccc2)C(=O)Nc2nc(-c3cn4ncnc4c(CCC(F)(F)C(F)(F)F)n3)nc(O)c21 (stereo not drawn) [Example 128B, 4-hydroxy-5-methyl-2-(8-(3,3,4,4,4-pentafluorobutyl)-[1,2,4]triazolo[1,5-a]pyrazin-6-yl)-5-phenyl-5H-pyrrolo[2,3-d]pyrimidin-6(7H)-one] | 128 nM | – |
| CC1(c2cccc(F)c2)C(=O)Nc2nc(-c3cn4ncnc4c(CCC(F)(F)C(F)(F)F)n3)nc(O)c21 (stereo not drawn) [Example 129B, 5-(3-fluorophenyl)-4-hydroxy-5-methyl-2-(8-(3,3,4,4,4-pentafluorobutyl)-[1,2,4]triazolo[1,5-a]pyrazin-6-yl)-5,7-dihydro-6H-pyrrolo[2,3-d]pyrimidin-6-one] | 51.7 nM | – |
| Cc1ccc(C2(C)C(=O)Nc3nc(-c4cn5ncnc5c(CCC(F)(F)C(F)(F)F)n4)nc(O)c32)nc1 (stereo not drawn) [Example 130B, 4-hydroxy-5-methyl-5-(5-methylpyridin-2-yl)-2-(8-(3,3,3,4,4,4-pentafluorobutyl)-[1,2,4]triazolo[1,5-a]pyrazin-6-yl)-5H-pyrrolo[2,3-d]pyrimidin-6(7H)-one] | 503 nM | – |
| CC1(c2ccc(C#N)cn2)C(=O)Nc2nc(-c3cn4ncnc4c(CCC(F)(F)C(F)(F)F)n3)nc(O)c21 (stereo not drawn) [Example 131A, 6-(4-hydroxy-5-methyl-6-oxo-2-(8-(3,3,4,4,4-pentafluorobutyl)-[1,2,4]triazolo[1,5-a]pyrazin-6-yl)-6,7-dihydro-5H-pyrrolo[2,3-d]pyrimidin-5-yl)nicotinonitrile] | 1470 nM | – |
| Cc1nc2c(CCC(F)(F)C(F)(F)F)nc(-c3nc(O)c4c(n3)NC(=O)C4(C)c3ccc(Cl)c(F)c3)cn2n1 (stereo not drawn) [Example 132B, 5-(4-chloro-3-fluorophenyl)-4-hydroxy-5-methyl-2-(2-methyl-8-(3,3,4,4,4-pentafluorobutyl)-[1,2,4]triazolo[1,5-a]pyrazin-6-yl)-5H-pyrrolo[2,3-d]pyrimidin-6(7H)-one] | 442 nM | – |
